Results reported in the supplement of paper PMC10307832.

Columns and labels:
Test in all cases: relative viability (nuclei count vs DMSO), 5 days (fraction); higher = more cells survive
Pimozide = compound: O=c1[nH]c2ccccc2n1C1CCN(CCCC(c2ccc(F)cc2)c2ccc(F)cc2)CC1 [Pimozide]
How it was run: (§1)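 Viability was defined as treated-well nuclei divided by vehicle-well nuclei, with the median taken over replicate plates. Cells from lung cancer lines sat overnight at 37 °C in 1536-well plates, received five √10-spaced library-drug doses by pinning on vehicle-anchored plates, and grew 5 days without medium change before one-step fixation, permeabilisation and Hoechst staining, 4× imaging and MetaXpress nuclear counts. Only plates with control CV under 25% and at least one doubling were kept.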

Docetaxel = compound: CC(=O)O[C@@]12CO[C@@H]1C[C@H](O)[C@@]1(C)C(=O)[C@H](O)C3=C(C)[C@@H](OC(=O)[C@H](O)[C@@H](NC(=O)OC(C)(C)C)c4ccccc4)C[C@@](O)([C@@H](OC(=O)c4ccccc4)[C@H]21)C3(C)C [Docetaxel]
How it was run: as §1

[1] = compound: Cc1cnc(-c2cnc(NCCNc3ccc(C#N)cn3)nc2-c2ccc(Cl)cc2Cl)[nH]1
How it was run: as §1

Cytarabine = compound: Nc1ccn([C@@H]2O[C@H](CO)[C@@H](O)[C@@H]2O)c(=O)n1 [Cytarabine]
How it was run: as §1

CPI-613 = compound: O=C(O)CCCCC(CCSCc1ccccc1)SCc1ccccc1 [CPI-613]
How it was run: as §1

JQ1 = compound: Cc1sc2c(c1C)C(c1ccc(Cl)cc1)=N[C@@H](CC(=O)OC(C)(C)C)c1nnc(C)n1-2 [JQ1]
How it was run: as §1

Tivozanib = compound: COc1cc2nccc(Oc3ccc(NC(=O)Nc4cc(C)on4)c(Cl)c3)c2cc1OC [Tivozanib]
How it was run: as §1

Row | Cell Line | relative viability (Pimozide; 0.08 µM) | relative viability (Pimozide; 0.253 µM) | relative viability (Pimozide; 0.8 µM) | relative viability (Pimozide; 2.53 µM) | relative viability (Pimozide; 8 µM) | relative viability (Docetaxel; 0.0002 µM) | relative viability (Docetaxel; 0.000632 µM) | relative viability (Docetaxel; 0.002 µM) | relative viability (Docetaxel; 0.006325 µM) | relative viability (Docetaxel; 0.02 µM) | relative viability ([1]; 0.08 µM) | relative viability ([1]; 0.8 µM) | relative viability ([1]; 2.53 µM) | relative viability (Cytarabine; 0.005 µM) | relative viability (Cytarabine; 0.01581 µM) | relative viability (Cytarabine; 0.05 µM) | relative viability (Cytarabine; 0.1581 µM) | relative viability (Cytarabine; 0.5 µM) | relative viability (CPI-613; 5 µM) | relative viability (CPI-613; 15.81 µM) | relative viability (CPI-613; 50 µM) | relative viability (CPI-613; 158.11 µM) | relative viability (CPI-613; 500 µM) | relative viability (JQ1; 0.04 µM) | relative viability (JQ1; 0.1265 µM) | relative viability (JQ1; 0.4 µM) | relative viability (JQ1; 1.265 µM) | relative viability (JQ1; 4 µM) | relative viability (Tivozanib; 0.005 µM) | relative viability (Tivozanib; 0.01581 µM) | relative viability (Tivozanib; 0.05 µM) | relative viability (Tivozanib; 0.1581 µM) | relative viability (Tivozanib; 0.5 µM) | relative viability ([1]; 0.253 µM)
1 | 201T | 0.98 | 0.977 | 0.965 | 0.936 | 0.832 | 0.977 | 0.963 | 0.657 | 0.469 | 0.369 | 1.01 | 0.966 | 0.992 | 0.981 | 1.03 | 0.977 | 0.873 | 0.787 | 0.97 | 0.909 | 0.968 | 0.756 | 0.862 | 0.97 | 0.561 | 0.865 | 0.458 | 0.386 | 1.01 | 1.01 | 1.03 | 0.912 | 0.991 | –
2 | A549 | 0.96 | 0.89 | 0.981 | 0.952 | 0.874 | 0.914 | 0.68 | 0.0907 | 0.0644 | 0.0347 | 1.06 | 0.945 | 0.958 | 0.861 | 0.682 | 0.391 | 0.101 | 0.0441 | 0.973 | 0.911 | 0.978 | 0.624 | 0.647 | 0.953 | 0.912 | 0.909 | 0.686 | 0.363 | 0.939 | 0.99 | 0.994 | 0.942 | 0.944 | 0.957
3 | A-427 | 0.952 | 0.967 | 0.94 | 0.882 | 0.845 | 0.931 | 0.952 | 0.439 | 0.281 | 0.171 | 1.04 | 0.959 | 0.948 | 0.823 | 0.449 | 0.329 | 0.214 | 0.204 | 1 | 0.898 | 0.939 | 0.772 | 0.157 | 0.902 | 0.879 | 0.91 | 0.653 | 0.504 | 0.98 | 1 | 1.03 | 0.902 | 0.833 | 0.852
4 | ABC-1 | 0.811 | 1.05 | 0.959 | 0.897 | 0.698 | 0.853 | 0.817 | 0.472 | 0.343 | 0.24 | 0.881 | 0.896 | 0.904 | 0.907 | 0.883 | 0.808 | 0.732 | 0.582 | 1.05 | 0.802 | 1.04 | 0.469 | 0.226 | 0.947 | 0.657 | 0.691 | 0.572 | 0.444 | 0.849 | 0.919 | 1 | 0.793 | 0.412 | 0.682
5 | BEN | 0.96 | 1.07 | 0.975 | 0.925 | 1.04 | 0.951 | 1.01 | 0.593 | 0.291 | 0.198 | 1.05 | 0.933 | 0.984 | 0.892 | 0.794 | 0.617 | 0.473 | 0.335 | 0.988 | 0.843 | 0.96 | 0.799 | 0.811 | 0.809 | 0.848 | 0.594 | 0.44 | 0.387 | 0.922 | 1.05 | 1.02 | – | 0.889 | 0.991
6 | CAL-12T | 0.951 | 0.936 | 0.909 | 0.867 | 0.832 | 0.791 | 0.418 | 0.302 | 0.21 | 0.178 | 1.03 | 0.899 | 0.927 | 0.983 | 0.909 | 0.789 | 0.397 | 0.255 | 0.877 | 0.829 | 0.822 | 0.423 | 0.235 | 0.867 | 0.818 | 0.798 | 0.321 | 0.293 | 0.857 | 0.941 | 0.994 | 0.698 | 0.959 | 0.933
7 | COR-L23 | 1.08 | 1.03 | 0.949 | 0.981 | 0.912 | 0.963 | 0.904 | 0.514 | 0.184 | 0.141 | 1.08 | 1.04 | 0.934 | 1.06 | 0.874 | 0.656 | 0.234 | 0.172 | 1 | 0.946 | 1.03 | 0.415 | 0.0149 | 0.965 | 0.848 | 1.02 | 0.54 | 0.549 | 1.01 | 0.989 | 1.06 | 1.09 | 0.841 | 0.897
8 | COR-L 105 | – | 1.1 | 0.907 | 0.862 | 0.838 | 0.86 | 0.811 | 0.536 | 0.418 | 0.302 | 0.991 | 0.868 | 0.563 | 0.905 | 0.81 | 0.627 | 0.448 | 0.386 | 0.853 | 0.872 | 0.839 | 0.364 | 0.29 | 0.684 | 0.607 | 0.38 | 0.352 | 0.33 | 0.901 | 0.914 | 0.93 | 0.843 | 0.859 | 0.887
9 | Calu-6 | 1.05 | 1.01 | 0.974 | 0.991 | 0.897 | 1.01 | 0.892 | 0.28 | 0.157 | 0.109 | 1 | 0.969 | 0.908 | 0.93 | 0.865 | 0.714 | 0.462 | 0.313 | 0.978 | 0.999 | 0.913 | 0.722 | 0.545 | 0.951 | 0.804 | 0.933 | 0.593 | 0.425 | 0.955 | 1.02 | 1.04 | 1.08 | 0.943 | 0.951
